In ChEMBL document CHEMBL4304811, “Development of a Water-Soluble Indolylmaleimide Derivative IM-93 Showing Dual Inhibition of Ferroptosis and NETosis” (ACS Med Chem Lett, 2019):
pIC50: −log10 of the molar value. Active and inactive are the calls of the source. The rule behind the calls is not given here.

Tests used:
HL-60 = assay: Cytoprotection against human HL60 cells assessed as inhibition of H2O2-induced cell death pretreated for 1 hr followed by H2O2 stimulation measured after 3 hrs by p-iodonitrotetrazolium violet dye based LDH assay; assay type: functional
Neutrophil [1] = assay: Inhibition of PMA-induced NETosis in human neutrophils at […] preincubated for 30 mins followed by PMA stimulation and measured after 3.5 hrs by Hoechst […] staining based fluorescence microscopic analysis; assay type: functional, cell-based
THP-1 [2] = assay: Inhibition of Staphylococcus aureus-induced pyroptosis in human THP1 cells at 10 uM preincubated for 1 hr followed by bacterial infection and measured after 2 hrs by INT dye based LDH assay; assay type: functional, cell-based
THP-1 [3] = assay: Inhibition of Pseudomonas aeruginosa-induced pyroptosis in human THP1 cells at 10 uM preincubated for 1 hr followed by bacterial infection and measured after 2 hrs by INT dye based LDH assay; assay type: functional, cell-based
NIH3T3 [4] = assay: Inhibition of TBHP-induced ferroptosis in mouse NIH/3T3 cells after 12 hrs by WST-8 assay; assay type: functional, cell-based; conditions: NIH3T3, 12 h
Neutrophil [5] = assay: Inhibition of PMA-induced NETosis in human neutrophils at 100 uM preincubated for 30 mins followed by PMA stimulation and measured after 3 hrs by Hoechst […] staining based fluorescence microscopic analysis; assay type: functional, cell-based
Neutrophil [6] = assay: Inhibition of PMA-induced NETosis in human neutrophils assessed as effect on lipid peroxidation at 100 uM preincubated for 30 mins followed by PMA stimulation measured after 30 mins by C11-Bodipy fluorescent dye based flow cytometry; assay type: functional, cell-based
NIH3T3 [7] = assay: Inhibition of erastin-induced ferroptosis in mouse NIH/3T3 cells after 24 hrs by WST-8 assay; assay type: functional, cell-based; conditions: NIH3T3, 24 h
Neutrophil [8] = assay: Inhibition of PMA-induced superoxide production in C57BL6 mouse neutrophils at 100 uM preincubated for 30 mins followed by PMA stimulation and measured after 30 mins by luminol-lucignenin based luminescence assay; assay type: functional, cell-based
[9] = Aqueous solubility of compound in citrate-phosphate buffer at pH 7.0 after 30 mins by HPLC analysis; assay type: physicochemical
Neutrophil [10] = assay: Inhibition of PMA-induced superoxide production in C57BL6 mouse neutrophils at 2.5 uM preincubated for 30 mins followed by PMA stimulation and measured after 30 mins by luminol-lucignenin based luminescence assay; assay type: functional, cell-based
Neutrophil [11] = assay: Inhibition of PMA-induced NETosis in human neutrophils at 2.5 uM preincubated for 30 mins followed by PMA stimulation and measured after 3 hrs by Hoechst […] staining based fluorescence microscopic analysis; assay type: functional, cell-based
Neutrophil [12] = assay: Inhibition of PMA-induced NETosis in human neutrophils at 25 uM preincubated for 30 mins followed by PMA stimulation and measured after 3 hrs by Hoechst […] staining based fluorescence microscopic analysis; assay type: functional, cell-based
Neutrophil [13] = assay: Inhibition of PMA-induced NETosis in human neutrophils assessed as inhibition of ROS production at 25 uM pretreated for 25 mins followed by PMA stimulation and measured after 20 mins by DCFH-DA based flow cytometry; assay type: functional, cell-based
Neutrophil [14] = assay: Inhibition of PMA-induced NETosis in human neutrophils assessed as reduction in lipid peroxidation at 2.5 uM preincubated for 30 mins followed by PMA stimulation measured after 30 mins by C11-Bodipy fluorescent dye based flow cytometry; assay type: functional, cell-based

| Structure (SMILES) | pIC50 (HL-60) | further results |
| --- | --- | --- |
| C[C@@H](NC1=C(c2cn(C)c3ccccc23)C(=O)N(C)C1=O)c1ccccc1 | 6.41 | – |
| C[C@H](NC1=C(c2cn(C)c3ccccc23)C(=O)N(C)C1=O)c1ccccc1 | 6.29 | – |
| CCCNC1=C(c2cn(C)c3ccccc23)C(=O)N(C(c2ccccc2)(c2ccccc2)c2ccccc2)C1=O | 6.10 | – |
| CCCCCN1C(=O)C(NCCC)=C(c2cn(C)c3ccccc23)C1=O | 6.49 | – |
| CN1C(=O)C(NCc2cccc(Cl)c2)=C(c2cn(C)c3ccccc23)C1=O | 6.55 | – |
| CN(C)CCCNC1=C(c2cn(C)c3ccccc23)C(=O)N(C)C1=O | 6.21 | – |
| CN1C(=O)C(NC2CCCC2)=C(c2cn(C)c3ccccc23)C1=O | 6.52 | – |
| COc1ccc(CNC2=C(c3cn(C)c4ccccc34)C(=O)N(C)C2=O)cc1 | 6.07 | – |
| CN1C(=O)C(NCc2ccccc2)=C(c2cn(C)c3ccccc23)C1=O | 6.48 | – |
| CC(=O)N[C@@H](CS)C(=O)O | – | inhibition (Neutrophil [1]): inactive |
| CCCCCCCCCCCCCN1C(=O)C(NCCC)=C(c2cn(C)c3ccccc23)C1=O | 6.40 | – |
| CN1C(=O)C(NCc2ccncc2)=C(c2cn(C)c3ccccc23)C1=O | 5.92 | – |
| CCCNC1=C(c2cn(C)c3ccccc23)C(=O)N(Cc2ccccc2)C1=O | 6.35 | – |
| CN1C(=O)C(NCc2ccccc2Cl)=C(c2cn(C)c3ccccc23)C1=O | 5.77 | – |
| CCCNC1=C(c2cn(C)c3ccccc23)C(=O)N(CC)C1=O | 6.12 | – |
| CCCNC(=O)[C@H]1O[C@@H]1C(=O)N[C@H](C(=O)N1CCC[C@H]1C(=O)OC)[C@@H](C)CC | – | inhibition (THP-1 [2]): Active; inhibition (THP-1 [3]): Active |
| CN1C(=O)C(NCc2ccccn2)=C(c2cn(C)c3ccccc23)C1=O | 5.89 | – |
| CN(C)C1=C(c2cn(C)c3ccccc23)C(=O)N(C)C1=O | 5.37 | – |
| CC(=O)N(O)CCCCCNC(=O)CCC(=O)N(O)CCCCCNC(=O)CCC(=O)N(O)CCCCCN [DEFEROXAMINE] | – | pIC50 (NIH3T3 [4]): 5.05; inhibition (Neutrophil [5]): inactive; Activity (Neutrophil [6]): inactive; pIC50 (NIH3T3 [7]): 5.31; inhibition (Neutrophil [8]): inactive |
| CCCCN1C(=O)C(NCCC)=C(c2cn(C)c3ccccc23)C1=O | 6.46 | – |
| COc1ccccc1CNC1=C(c2cn(C)c3ccccc23)C(=O)N(C)C1=O | 6.32 | – |

| Structure (SMILES) | pIC50 (HL-60) | further results |
| --- | --- | --- |
| CN1C(=O)C(NC(c2ccccc2)c2ccccc2)=C(c2cn(C)c3ccccc23)C1=O | 5.92 | – |
| CN1C(=O)C(NCC2CCCCC2)=C(c2cn(C)c3ccccc23)C1=O | 6.41 | – |
| CN1C(=O)C(NC2CC2)=C(c2cn(C)c3ccccc23)C1=O | 5.42 | – |
| CN(C)CCNC1=C(c2cn(C)c3ccccc23)C(=O)N(C)C1=O | 6.12 | – |
| CCCNC1=C(c2cn(C)c3ccccc23)C(=O)N(CCC)C1=O | 6.21 | – |
| CN1C(=O)C(NCc2ccc(Cl)cc2)=C(c2cn(C)c3ccccc23)C1=O | 6.51 | – |
| CN1C(=O)C(NCCN)=C(c2cn(C)c3ccccc23)C1=O.Cl | – | solubility at 0.5 h [9]: 71 mM |
| CN1C(=O)C(NCc2ccco2)=C(c2cn(C)c3ccccc23)C1=O | 6.15 | – |
| COc1cccc(CNC2=C(c3cn(C)c4ccccc34)C(=O)N(C)C2=O)c1 | 6.38 | – |
| CN1C(=O)C(NCCc2ccccc2)=C(c2cn(C)c3ccccc23)C1=O | 6.19 | – |
| CCCNC1=C(c2cn(C)c3ccccc23)C(=O)N(C2CCCC2)C1=O | 6.55 | – |
| CN1C(=O)C(NC2CCCCC2)=C(c2cn(C)c3ccccc23)C1=O | 6.00 | – |
| CCCNC1=C(c2cn(C)c3ccccc23)C(=O)N(C(C)C)C1=O | 7.47 | – |
| CCOC(=O)c1ccc(NC2CCCCC2)c(N)c1 | – | inhibition (Neutrophil [10]): inactive; pIC50 (NIH3T3 [4]): 6.66; inhibition (Neutrophil [11]): inactive; pIC50 (NIH3T3 [7]): 6.57; inhibition (Neutrophil [12]): inactive; inhibition (Neutrophil [13]): inactive; inhibition (Neutrophil [14]): Active |
| CN1C(=O)C(N)=C(c2cn(C)c3ccccc23)C1=O | 5.35 | – |
| CN1C(=O)C(c2cn(C)c3ccccc23)=C(N2CCCC2)C1=O | 5.33 | – |
| CCCNC1=C(c2cn(C)c3ccccc23)C(=O)N(C(CC)CC)C1=O | 6.32 | – |
| CC(C)NC1=C(c2cn(C)c3ccccc23)C(=O)N(C)C1=O | 6.32 | – |
| CN1C(=O)C(NC(C)(C)C)=C(c2cn(C)c3ccccc23)C1=O | 6.06 | – |
| CCCCCNC1=C(c2cn(C)c3ccccc23)C(=O)N(C)C1=O | – | solubility at 0.5 h [9]: < 0.001 mM |
| CN1C(=O)C(NCc2cccnc2)=C(c2cn(C)c3ccccc23)C1=O | 5.89 | – |
